Results taken from article PMC12765074, “Mechanistic insights into enterocin C targeting the undecaprenyl phosphate recycling protein BacA” (The Journal of Biological Chemistry, 2025).
“And” between values parts separate entries of the source, which are not always exact repeats. Equal values may be shown once. Marks after values point to notes of the source that are not given here.

Experiments:
[1] = tested on: E. faecalis EfΔbacA cells expressing BacAef K209A D110A; test: survival test; assay type: cell-based, Enterococcus faecalis; conditions: 0.5 μM EntC, 30 min, 37 °C, p ≤ 0.001, three experiments
[2] = tested on: E. faecalis EfΔbacA cells expressing BacAef R172A; test: survival test; assay type: cell-based, Enterococcus faecalis; conditions: 0.5 μM EntC, 30 min, 37 °C, p ≤ 0.0001, three experiments
[3] = tested on: E. faecalis EfΔbacA cells expressing BacAef K209A; test: survival test; assay type: cell-based, Enterococcus faecalis; conditions: 0.5 μM EntC, 30 min, 37 °C, p ≤ 0.0001, three experiments
[4] = tested on: E. faecalis EfΔbacA cells expressing BacAef S26A; test: survival test; assay type: cell-based, Enterococcus faecalis; conditions: 0.5 μM EntC, 30 min, 37 °C, p ≤ 0.01, three experiments
[5] = tested on: E. faecalis EfΔbacA cells expressing BacAef D110A; test: survival test; assay type: cell-based, Enterococcus faecalis; conditions: 0.5 μM EntC, 30 min, 37 °C, three experiments
[6] = tested on: E. faecalis EfΔbacA cells expressing catalytically inactive variants of BacAef (E20A, S26A, R172A); test: spot-on-lawn assay, catalytic site mutants; assay type: cell-based, Enterococcus faecalis
BacAef S26A = BacAef S26A (Enterococcus faecalis, UniProt A0ACD6TE02, S38A); test: ITC, BacAef S26A; assay type: binding; conditions: 20 °C
Protocol: (§1) The experiments were carried out at 20 °C.

[7] = tested on: E. faecalis (V583-derivative strain, WT); assay type: cell-based, Enterococcus faecalis; conditions: 6 μl droplets on a lawn of E. faecalis, BHI 0.75% agar, overnight; representative of three independent experiments
BacAef R172A = BacAef R172A (Enterococcus faecalis, UniProt A0ACD6TE02, R184A); test: ITC, BacAef R172A; assay type: binding; conditions: 20 °C
Protocol: as §1

BacAef = BacAef (Enterococcus faecalis, UniProt A0ACD6TE02); test: UppS-coupled C55-PP phosphatase assay in liposomes, BacAef; assay type: biochemical; conditions: DOPC:DOPG:DOPE liposomes, 20 mM HEPES pH 7.5, 37 °C, 10 min, TLC
Protocol: (§2) The reconstitution of BacA and PgpB in liposomes was achieved through adapted protocols previously described ([48]). Liposomes were prepared by rehydrating a lipid film of DOPC: DOPG: DOPE (3 mg: 0.75 mg: 1.25 mg) after 4 h of desiccation by adding 1 ml of buffer (20 mM HEPES, pH 7.5, 50 mM NaCl, 15% glycerol). […] The lipid suspension underwent 10 freeze-thaw cycles in liquid nitrogen and was extruded through a 100 nm polycarbonate membrane (Millipore). Protein reconstitution was performed by destabilizing the liposomes with 5.5 mM Triton X-100 for 15 min. The protein was added at a final concentration of 15 μg/ml and the mixture was incubated at 4 °C for 15 min.
(§3) The liposomes were used to measure the C55-PP phosphatase activity of BacA in a membrane environment as follows. For each kinetic assay, 5 μl of a reaction mixture containing 20 μM C15-PP, 20 μM [^14C]C5-PP, 180 μM C5-PP in 20 mM HEPES, pH 7.5, 50 mM NaCl, and 15% glycerol were mixed with 5 μl of protein-free liposomes (as a control) or BacA-containing liposomes. The mixture was then supplemented with UppS at a final concentration of 0.2 mg/ml to initiate the enzymatic synthesis of C55-PP. The EntC peptides were added at various concentrations from a water solution. […] Substrates and products were separated and quantified by thin-layer chromatography as previously described for C55-PP phosphatase assay in detergent.

[8] = tested on: E. faecalis EfΔbacA cells expressing BacAef D106A D110A; test: survival test; assay type: cell-based, Enterococcus faecalis; conditions: 0.5 μM EntC, 30 min, 37 °C, three experiments
[9] = liposome permeabilisation assay (BCECF), protein-free; assay type: biochemical; conditions: 5 μM EntC, internal pH 8, external pH 6
[10] = tested on: E. faecalis EfΔbacA cells expressing BacAef variants (K209A variants); test: spot-on-lawn assay, D106/D110/K209 variants; assay type: cell-based, Enterococcus faecalis; conditions: compared to wild-type BacAef
[11] = tested on: EfΔbacA cells carrying pIL:bacAef; test: spot assay on bacA-complemented strain; assay type: cell-based, Enterococcus faecalis; conditions: spot on BHI agar
BacAec [12] = target: T1, BacAec (Escherichia coli, UniProt P60932); conditions: highest concentration tested 100 μM
T1 sequence (P60932 whole entry): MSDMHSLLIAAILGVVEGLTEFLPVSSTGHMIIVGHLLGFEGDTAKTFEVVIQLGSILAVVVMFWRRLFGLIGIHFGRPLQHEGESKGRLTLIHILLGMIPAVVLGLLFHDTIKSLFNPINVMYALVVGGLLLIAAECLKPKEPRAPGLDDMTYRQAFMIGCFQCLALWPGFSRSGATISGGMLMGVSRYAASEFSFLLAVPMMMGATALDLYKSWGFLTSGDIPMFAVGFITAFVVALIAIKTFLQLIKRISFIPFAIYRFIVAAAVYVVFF
Protocol: as §2, §3

BacAef K209A D110A D106A = test: ITC, BacAef K209A D110A D106A; assay type: binding, Enterococcus faecalis; conditions: 20 °C, 400 μM into [BacAef K209A D110A D106A] 33 μM, pH 7.4, 0.1% DDM, at least triplicate
Protocol: as §1

[13] = tested on: EfΔbacA cells (pIL252 empty vector); test: spot assay on bacA-deleted strain; assay type: cell-based, Enterococcus faecalis; conditions: spot on BHI agar
PgpB-liposomes = test: proteoliposome permeabilisation assay (BCECF), PgpB-liposomes; assay type: biochemical, Escherichia coli; conditions: EntC
L. lactis IL1403 = test: spot-on-lawn antibacterial assay, L. lactis; assay type: cell-based, Lactococcus lactis; conditions: 6 μl droplets, L. lactis IL1403, M17G agar, overnight
[14] = tested on: E. faecalis EfΔbacA cells expressing BacAef K209A D106A D110A; test: survival test; assay type: cell-based, Enterococcus faecalis; conditions: 0.5 μM EntC, 30 min, 37 °C, p ≤ 0.0001, three experiments
BacAec [15] = target: T1, BacAec; conditions: DDM micelles
Protocol: The C55-PP phosphatase assays were performed in a 10-μl reaction mixture containing 20 mM Tris-HCl, pH 7.4, 400 μM CaCl2, 150 mM NaCl, 0.1% (w/v) DDM and 50 μM radiolabeled [^14C]C55-PP (900 Bq). The BacA concentration was adjusted in order to achieve less than 30% substrate hydrolysis. The mixture was incubated for 10 min at 37 °C, and the reaction was stopped by freezing in liquid nitrogen. Substrates and products were separated by thin-layer chromatography on precoated silica gel 60 plates (Merck) using 1-propanol/ammonium hydroxide/water (6:3:1, v/v/v) as the mobile phase. Radioactive spots were located and quantified using a radioactivity scanner (model Multi-Tracermaster LB285, Berthold-France). When the phosphatase activity was tested at different pH values, the following buffers were used at 20 mM: sodium acetate (pH 4–7) or Tris-HCl (pH 7–8). In the EDTA assay, the protein was pre-treated with 200 μM EDTA. For pH and EDTA assays, CaCl2 was omitted from the reaction buffer.

[16] = tested on: E. faecalis EfΔbacA cells expressing BacAef; test: survival test; assay type: cell-based, Enterococcus faecalis; conditions: 0.5 μM EntC, 30 min
BacAef K209A = BacAef K209A (Enterococcus faecalis, UniProt A0ACD6TE02, K221A); test: ITC, BacAef K209A; assay type: binding; conditions: 20 °C
Protocol: as §1

E. faecalis = conditions: ref [17]; cited from earlier work
BacAef-liposomes = conditions: 5 μM EntC, internal pH 8, external pH 6, peptide:lipid c.a. 1:1300, without EntC 1.10^-4 sec^-1
BacAec [17] = target: T1, BacAec; conditions: titration of EntC into BacAec
Protocol: ITC experiments were performed with an ITC200 isothermal titration calorimeter from MicroCal (Malvern Panalytical, Malvern, UK). The experiments were carried out at 20 °C. The protein concentration in the microcalorimeter cell (0.2 ml) was 33 μM. Nineteen 2-μl injections of peptides at 400 μM were performed at intervals of 240 s while stirring at 500 rpm. To limit buffer mismatching effect between the cell and the syringe, and the heat-of-dilution effect for having glycerol in the protein solution, the latter were extensively dialyzed, prior to the ITC measurement, in a buffer containing 20 mM Tris-HCl pH 7.4, 200 mM NaCl, 0.1% DDM, to remove glycerol. Then, the dialysis buffer was used to dilute the EntC peptides to further limit buffer mismatching. The experimental data were fitted to theoretical titration curves with the software supplied by MicroCal (ORIGIN). This software uses the relationship between the heat generated by each injection and ΔH (enthalpy change in kcal/mol), Ka (the association binding constant in M^−1), n (the number of binding sites), total protein concentration and free and total ligand concentrations.

[18] = tested on: E. faecalis EfΔbacA cells expressing BacAef D106A; test: survival test; assay type: cell-based, Enterococcus faecalis; conditions: 0.5 μM EntC, 30 min, 37 °C, three experiments
BacAef E20A = BacAef E20A (Enterococcus faecalis, UniProt A0ACD6TE02, E32A); test: ITC, BacAef E20A; assay type: binding; conditions: 20 °C
Protocol: as §1

## Enterocin C [EntC]
[1]
  % of survival: 7.6 ± 1.0 ^e %
[2]
  % of survival: 7.8% and 7.8 ± 0.8 ^d %
[3]
  % of survival: 11% and 11 ± 1.0 ^d %
[4]
  % of survival: 6.8% and 6.8 ± 2.4 ^c %
[5]
  % of survival: 2.8 ± 1.0%
[6]
  susceptibility of EfΔbacA expressing catalytic site mutant alleles: restored with a plasmid expressing wild-type bacAef or any of the three catalytic site mutant alleles, although a slight decrease of the susceptibility was observed with R172A variant
BacAef S26A; 400 μM into [BacAef S26A] 33 μM
  n: 0.80 ± 0.02
BacAef S26A; 400 μM into [BacAef S26A] 33 μM, pH 7.4, 0.1% DDM, at least triplicate
  Kd: 439 ± 125 nM
BacAef S26A; into [BacAef S26A]
  -TΔS: 8.5 kcal/mol
  ΔG: -8.5 kcal/mol
  ΔH: -17.0 kcal/mol
[7]
  antibacterial activity (spot-on-lawn), E. faecalis: E. faecalis was only susceptible to EntC
BacAef R172A; 400 μM into [BacAef R172A] 33 μM
  n: 0.30 ± 0.03
BacAef R172A; 400 μM into [BacAef R172A] 33 μM, pH 7.4, 0.1% DDM, at least triplicate
  Kd: 1610 ± 650 nM
BacAef R172A; into [BacAef R172A]
  -TΔS: 3.6 kcal/mol
  ΔG: -7.8 kcal/mol
  ΔH: -11.4 kcal/mol
BacAef
  IC50: 1200 ± 100 nM
[8]
  % of survival: 4.0 ± 3.0%
[9]
  membrane permeabilization of protein-free liposomes: did not affect protein-free liposomes
[10]
  susceptibility of EfΔbacA expressing K209A variants: small reduction in susceptibility
[11]
  susceptibility of EfΔbacA strain with ectopic bacA: fully restored
BacAec [12]
  inhibition of BacAec in liposomes: no inhibitory effect
BacAef K209A D110A D106A
  KD: No binding
[13]
  susceptibility of EfΔbacA strain: full resistance
PgpB-liposomes
  membrane permeabilization of PgpB-liposomes: no permeabilization effect
L. lactis IL1403
  antibacterial activity (spot-on-lawn), L. lactis: sensitivity to both bacteriocins
[14]
  % of survival: 54% and 54 ± 11 ^d %
BacAec [15]
  inhibition of BacAec C55-PP phosphatase activity: not inhibited
[16]; 37 °C, BHI, CFU vs same cells without EntC, three independent experiments
  % of survival: <1%
[16]; exponentially growing cells expressing wild-type BacAef
  cells killed: more than 99%
BacAef K209A; 400 μM into [BacAef K209A] 33 μM
  n: 0.46 ± 0.02
BacAef K209A; 400 μM into [BacAef K209A] 33 μM, pH 7.4, 0.1% DDM, at least triplicate
  Kd: 1840 ± 335 nM
BacAef K209A; into [BacAef K209A]
  -TΔS: 0.1 kcal/mol
  ΔH: -8.3 kcal/mol
E. faecalis
  activity against E. faecalis: active against the opportunistic pathogen E. faecalis
BacAef-liposomes
  rate of decrease of BCECF fluorescence: about 6.10^-4 sec^-1
BacAec [17]
  binding to BacAec (ITC): no binding
[18]
  % of survival: 1.6 ± 1.0%
BacAef E20A; 400 μM into [BacAef E20A] 33 μM
  n: 0.69 ± 0.01
BacAef E20A; 400 μM into [BacAef E20A] 33 μM, pH 7.4, 0.1% DDM, at least triplicate
  Kd: 190 ± 40 nM
BacAef E20A; into [BacAef E20A]
  -TΔS: 13.0 kcal/mol
  ΔG: -9 kcal/mol
  ΔH: -22.0 kcal/mol
